In experiment [1] the test system is human tongue squamous carcinoma cells (SAS cells). Put plainly: Animal experiment: SAS tumor-transplanted nude mice, tumor growth delay with X-ray irradiation. It is filed as in vivo. The settings on record: for enhancement ratio (ER): tumor volume 500 mm^3. From the text:
Nude mice were assigned to four groups (control group; single use group of the present radiosensitizer administration; single use group of irradiation; and combined use group of irradiation and the present radiosensitizer administration; 4 mice per group). 1.0×10^6 human tongue squamous carcinoma cells (SAS cells) were suspended in PBS(−), and the suspension was transplanted subcutaneously into a right thigh of each mouse. After 10 to 14 days, when tumor volume became a desired value in a range of about 50 mm^3 to about 100 mm^3, each mouse was subjected to treatment according to each group. As a radiosensitizer, 3-O-(6-deoxy-6-sulfo-α-D-glucopyranosyl)-1-O-stearoyl-glycerol sodium salt (hereinafter, also referred to as “α-SQMG C18:0”) was used. Regarding the single use group of irradiation, X-ray was irradiated two times (at the time of treatment initiation (day 0) and on day 6 after the treatment initiation) at a dose of 8 Gy. Regarding the single use group of α-SQMG C18:0 administration, the sensitizer was intraperitoneally administered two times (day 0 and day 6) at a concentration of 1 mg/kg. Regarding the combined use group, each mouse of the group was treated with both of irradiation and α-SQMG C18:0 administration. Regarding the control group, neither irradiation nor α-SQMG C18:0 administration was performed. Thereafter, a short diameter and a long diameter of a tumor were measured with a micrometer caliper over a period of 16 to 23 days. Tumor volume was calculated by the following equation, and the tumor growth delaying effect was compared.
Equation for calculating tumor volume:
tumor volume (mm^3)=(short diameter)^2×(long diameter)×0.5
The same experiment as that of Experimental Example 1-1 was performed except that irradiation was performed at the time of treatment initiation (day 0) and on day 4 after the treatment initiation, administration of α-SQMG C18:0 was performed only on day 0, and measurement of tumor size was performed over a period of 26 days.
In order to express numerically this synergistic effect, ER (enhancement ratio) was calculated by the following equation. ER is a value defined by the literature (Int., J. Radiation Oncology Bio. Phys. Vol. 55, No. 3, pp. 713-723 (2003)), and ER will be explained below based on the definition.
ER=NGD÷TGD in the case of X-ray irradiation alone
In the equation, “TGD (tumor growth delay)” indicates delay of days necessary for tumor volume to reach a predetermined size in each test group as compared with a control group. That is, this is expressed by the following equation. In the Examples of the present invention, the predetermined size of tumor volume is 500 mm^3, unless otherwise indicated.
TGD=(number of days necessary for tumor volume to reach 500 mm^3 in test group)−(number of days necessary for tumor volume to reach 500 mm^3 in control group)
“NGD (normalized growth delay)” is expressed by the following equation.
NGD=(TGD in the case of combined use)−(TGD in the case of drug administration alone)
According to the aforementioned literature, it can be said that the anti-tumor effect is synergistic, when an enhancement ratio (ER) obtained by the above equation exceeds 1.0.
The same experiment as that of Experimental Example 1-1 was performed except that irradiation was performed at the time of treatment initiation (day 0) and on day 3 after the treatment initiation, α-SQMG C18:0 was administered once a day from day 0 to day 4, and measurement of tumor size was performed over a period of 35 days.
In the present Experimental Example, an experiment was performed in the same manner as in the above Experimental Example except that irradiation was performed at a dose of 2 Gy per fraction everyday from the time of treatment initiation (day 0) to day 4, and administration of α-SQMG C18:0 was performed everyday from day 0 to day 4. Details of the experiment will be described below.
Four nude mice (eight weeks old) were randomly assigned to each of four groups. […]

The subject of experiment [2] is human lung cancer cells (A549 cells). Put plainly: Animal experiment: A549 tumor-transplanted nude mice, tumor growth delay with X-ray irradiation. It is filed as in vivo. The settings on record: Exp. Ex. 1-7: X-ray 4 Gy day 0 and day 3, 1 mg/kg i.p. once a day day 0 to 4. As to the method: In the present Experimental Example, an experiment was performed in the same manner as in the aforementioned Experimental Examples except that human lung cancer cells (A549 cells) were transplanted into a nude mouse. Details of the experiment will be described below.
Four nude mice (eight weeks old) were randomly assigned to each of four groups. 2.0×10^6 human lung cancer cells (A549 cells) were suspended in PBS (−), and the suspension was transplanted subcutaneously into a right thigh of each mouse. After 45 days, when tumor volume became about 50 mm^3, each mouse was subjected to treatment according to each group. As a radiosensitizer, α-SQMG C18:0 was used as in the aforementioned Experimental Examples. In a single use group of irradiation, X-ray was irradiated two times (at the time of treatment initiation (day 0) and on day 3 after the treatment initiation) at a dose of 4 Gy. In a single use group of α-SQMG C18:0 administration, α-SQMG C18:0 was intraperitoneally administered at a concentration of 1 mg/kg once a day at a total of 5 times from the time of treatment initiation (day 0) to day 4. […] Thereafter, a short diameter and a long diameter of a tumor were measured with a micrometer caliper over a period of 20 days. Tumor volume was calculated according to the following equation, and the tumor growth delaying effect was compared. […]

[3] abbreviates: Exp. Ex. 1-2: X-ray 8 Gy day 0 and day 4, 1 mg/kg i.p. day 0 only.
[4] abbreviates: Exp. Ex. 1-3: X-ray 8 Gy day 0 and day 3, 1 mg/kg i.p. once a day day 0 to 4.

“Also recorded” adds a separate entry of the source.

For `CCCCCCCCCCCCCCCCCC(=O)OCC(O)CO[C@H]1O[C@H](CS(=O)(=O)[O-])[C@@H](O)[C@H](O)[C@H]1O.[Na+]` (stereo partly drawn) [α-SQMG C18:0, 3-O-(6-deoxy-6-sulfo-α-D-glucopyranosyl)-1-O-stearoyl-glycerol sodium salt], the “anti-tumor effect (tumor volume), combined use with irradiation” value in experiment [1] (Exp. Ex. 1-1: X-ray 8 Gy day 0 and day 6, 1 mg/kg i.p. day 0 and day 6) is listed as “anti-tumor effect far exceeding the anti-tumor effect attained by irradiation”; in experiment [1] (setting [3]) it was “anti-tumor effect far exceeding the anti-tumor effect attained by irradiation”; in experiment [1] (setting [4]), “anti-tumor effect far exceeding the anti-tumor effect attained by irradiation”; in experiment [1] (Exp. Ex. 1-4: X-ray 2 Gy once a day day 0 to 4 (total 10 Gy), 1 mg/kg i.p. once a day day 0 to 4), “anti-tumor effect exceeding the anti-tumor effect attained by irradiation alone”; in experiment [2] (sodium salt, 1 mg/kg), “anti-tumor effect exceeding the anti-tumor effect attained by irradiation alone; also recorded: increase in tumor volume is scarcely seen”. The “enhancement ratio (ER)” value is 2.0 in experiment [1] (setting [3]); 3.0 in experiment [1] (setting [4]); 1.8 in experiment [1] (Exp. Ex. 1-4: X-ray 2 Gy once a day day 0 to 4, 1 mg/kg i.p. once a day day 0 to 4); “cannot be calculated” in experiment [2].

For the origin of these results see patent publication US20090253644A1, “Radiosensitizer” (TOYO SUISAN KAISHA, LTD., priority 2004, published 2009).
